These results are taken from US20250188059A1, “NOVEL COMPOUND AND USE THEREOF FOR INHIBITING CHECKPOINT KINASE 2” (ARUM THERAPEUTICS INC, priority 2022, published 2025).

Molecules are shown by their SMILES. Read-outs that look alike come from different tables or passages of the source. A value given as a limit tells only on which side of the number the result lay.

One test has as its target Chk2 kinase (Homo sapiens (Human), UniProt O96017). The experiment in a line: Chk2 kinase inhibitory activity (LanthaScreen TR-FRET). In kind it is biochemical. Conditions: graded. The method, then: The compounds of Examples 1 to 66 were diluted at various concentrations and transferred to a 384-well plate by 5 μl, and 10 μl of a mixed solution (2×) of Chk1 kinase (Thermo, P3040) or Chk2 kinase (Thermo, PV3367) and a substrate (Thermo, PV3508) was added to wells treated with the compounds. 5 μl of an ATP solution at a 4× concentration was added to the test well and reacted at room temperature for 1 hour. 20 μl of LanthaScreen Terbium-CREB p-Ser 133 antibody (Thermo, PV3542) was added to the reaction well and incubated at room temperature for 30 minutes. Conversion data was measured by an EnVision 2014 multi label reader (PerkinElmer). The activity for each concentration was determined by the ratio (FRET ratio=FR) of the value obtained by dividing the value at 520 nm by the value at 490 nm among the emission wavelength values for each wavelength (Em520/Em490). The results obtained for each concentration of the compounds were the average values obtained in two wells, and the IC50 values of the compounds were calculated using PRIZM software for analysis of the results. IC50 in Table 7 was graded as follows.
(In general: In TR-FRET formats the signal depends on donor and acceptor labels being close together.)

In test [1] the test system is human breast cancer cell line MCF-7. Description: Cancer cell growth inhibition test (CellTiter-Glo). It is filed as cell-based. The settings on record: MCF-7, 72 hours. Here is the method:
The human breast cancer cell line MCF-7 was treated with trypsin and harvested. The number of cells was counted, and about 3000 cells/80 μl per well were inoculated into a 96 well plate (Corning) and then incubated in a 37° C. incubator for 24 hours. Thereafter, the example compounds were diluted in a culture solution at various concentrations, and each well was treated with 20 μl and stored in a cell culture incubator for 72 hours. In the case of the group administered in combination, the example compounds and cisplatin or doxorubicin were diluted in a culture solution at various concentrations, and each well was treated with 20 μl. After 72 hours, each well was treated with 30 μl of CellTiter-Glo solution (Promega), and the luminescence was read on a Victor3 multi label reader (PerkinElmer).
Relative viability (%)=(value of each test well/value of well treated with DMSO alone)×100
The results obtained for each concentration for each example compound were the average values obtained from three wells, and PRIZM software was used for analysis of the results.
On the technique in general: Cellular ATP, detected with luciferase, serves as a proxy for viable cell number.

The mark [2] stands for this setting: Homo sapiens, MCF7, 72 h, graded, read-out: Celltiter glo analysis (IC50).
Setting [3] is: graded, read-out: Celltiter glo analysis (IC50).
[4] abbreviates: Homo sapiens, MCF7, 72 h, alone, read-out: Administered alone (IC50).

Chk2 kinase, sequence (O96017 whole entry): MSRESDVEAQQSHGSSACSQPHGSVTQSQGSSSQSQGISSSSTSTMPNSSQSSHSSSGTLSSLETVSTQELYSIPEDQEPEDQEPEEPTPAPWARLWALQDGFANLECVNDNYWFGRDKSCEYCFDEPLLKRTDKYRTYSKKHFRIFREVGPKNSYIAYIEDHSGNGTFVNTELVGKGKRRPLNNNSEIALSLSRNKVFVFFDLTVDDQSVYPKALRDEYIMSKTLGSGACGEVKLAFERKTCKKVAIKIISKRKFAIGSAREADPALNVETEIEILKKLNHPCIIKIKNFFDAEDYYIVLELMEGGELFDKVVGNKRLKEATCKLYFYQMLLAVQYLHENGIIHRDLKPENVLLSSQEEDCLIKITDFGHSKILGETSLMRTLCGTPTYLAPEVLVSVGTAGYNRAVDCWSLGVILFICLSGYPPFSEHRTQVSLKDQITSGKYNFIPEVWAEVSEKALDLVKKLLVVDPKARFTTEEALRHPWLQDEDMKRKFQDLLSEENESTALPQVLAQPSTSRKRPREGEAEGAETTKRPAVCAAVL

As usually defined, the IC50 is the concentration at which inhibition is half-maximal. As to `CC1(C)Cc2c(-c3cccc(-c4cnc(N)c(C(=O)N[C@@H]5CNCCOC5)n4)c3)cnn2C1` (stereo in doubt) [Example 61, 3-amino-6-(3-(5,5-dimethyl-5,6-dihydro-4H-pyrrolo[1,2-b]pyrazol-3-yl)phenyl)-N-(1,4-oxazepan-6-yl)pyrazine-2-carboxamide], the IC50 was at most 0.01 µM on Chk2 kinase and above 100 µM in test [1] (setting [2]).

Take `Nc1ncc(-c2cc(-c3cnn(CC(F)(F)F)c3)ncc2F)nc1C(=O)N[C@H]1CCCNC1` [Example 1, (S)-3-amino-6-(5-fluoro-2-(1-(2,2,2-trifluoroethyl)-1H-pyrazol-4-yl)pyridin-4-yl)-N-(piperidin-3-yl) pyrazine-2-carboxamide]: the IC50 at Chk2 kinase lay within 0.01 to 0.1 µM; in test [1] (setting [2]) it was 10 to 100 µM.

Regarding `Nc1ncc(-c2cc(-c3cnn(CC(F)(F)F)c3)ncc2F)nc1C(=O)N[C@@H]1CNCC[C@H]1O` [Example 3, 3-amino-6-(5-fluoro-2-(1-(2,2,2-trifluoroethyl)-1H-pyrazol-4-yl)pyridin-4-yl)-N-((3R,4R)-4-hydroxypiperidin-3-yl)pyrazine-2-carboxamide], the IC50 is at most 0.01 µM against Chk2 kinase and 10 to 100 µM in test [1] (setting [2]).

Take `CC(C)(O)Cn1cc(-c2cc(-c3cnc(N)c(C(=O)N[C@H]4CCCNC4)n3)ccn2)cn1` [Example 5, (S)-3-amino-6-(2-(1-(2-hydroxy-2-methylpropyl)-1H-pyrazol-4-yl)pyridin-4-yl)-N-(piperidin-3-yl) pyrazine-2-carboxamide]: the IC50 against Chk2 kinase is at most 0.01 µM; in test [1] (setting [2]), above 100 µM.

`CC(C)(O)Cn1cc(-c2cc(-c3cnc(N)c(C(=O)NC4CNC[C@@H](F)C4)n3)ccn2)cn1` (stereo partly drawn) [Example 6, 3-amino-N-((3S,5S)-5-fluoropiperidin-3-yl)-6-(2-(1-(2-hydroxy-2-methylpropyl)-1H-pyrazol-4-yl)pyridin-4-yl)pyrazine-2-carboxamide]: the IC50 on Chk2 kinase was at most 0.01 µM; in test [1] (setting [3]), 10 to 100 µM.

In the case of `CC(C)(O)Cn1cc(-c2cc(-c3cnc(N)c(C(=O)N[C@H]4CCC5(CC5)NC4)n3)ccn2)cn1` [Example 7, (S)-3-amino-6-(2-(1-(2-hydroxy-2-methylpropyl)-1H-pyrazol-4-yl)pyridin-4-yl)-N-(4-azaspiro[2.5]octan-6-yl)pyrazine-2-carboxamide], the concentration for half-maximal inhibition (IC50) is at most 0.01 µM against Chk2 kinase and 10 to 100 µM in test [1] (setting [2]).

With `Nc1ncc(-c2cc(-c3cnn(CC(F)(F)F)c3)ccc2F)nc1C(=O)N[C@H]1CCC2(CC2)NC1` [Example 8, (S)-3-amino-6-(2-fluoro-5-(1-(2,2,2-trifluoroethyl)-1H-pyrazol-4-yl)phenyl)-N-(4-azaspiro[2.5]octan-6-yl)pyrazine-2-carboxamide], the 50% inhibitory concentration (IC50) was in the range of 0.01 to 0.1 µM against Chk2 kinase and 10 to 100 µM in test [1] (setting [2]).

Take `Nc1ncc(-c2cc(-c3cnn(CC(F)(F)F)c3)ccc2F)nc1C(=O)N[C@@H]1CNCC[C@H]1O` [Example 10, 3-amino-6-(2-fluoro-5-(1-(2,2,2-trifluoroethyl)-1H-pyrazol-4-yl)phenyl)-N-((3R,4R)-4-hydroxypiperidin-3-yl) pyrazine-2-carboxamide]: the results for the IC50 (against Chk2 kinase; in test [1] (setting [2])) were 0.01 to 0.1 µM and 10 to 100 µM, respectively.

Take `Nc1ncc(-c2cc(-c3cnn(CC(F)(F)F)c3)ccc2F)nc1C(=O)N[C@@H]1CNC[C@H]1O` [Example 11, 3-amino-6-(2-fluoro-5-(1-(2,2,2-trifluoroethyl)-1H-pyrazol-4-yl)phenyl)-N-((3R,4R)-4-hydroxypyrrolidin-3-yl) pyrazine-2-carboxamide]: the results for the IC50 (at Chk2 kinase; in test [1] (setting [2])) were 0.01 to 0.1 µM and 10 to 100 µM, respectively.

`Nc1ncc(-c2cc(-c3cnn(CC(F)(F)F)c3)ccc2F)nc1C(=O)N[C@@H]1CNCC(F)(F)C1` [Example 12, (S)-3-amino-N-(5,5-difluoropiperidin-3-yl)-6-(2-fluoro-5-(1-(2,2,2-trifluoroethyl)-1H-pyrazol-4-yl)phenyl)pyrazine-2-carboxamide]: the concentration for half-maximal inhibition (IC50) at Chk2 kinase is above 1 µM; in test [1] (setting [2]), at most 10 µM.

Take `Nc1ncc(-c2ccnc(-c3cnn(CC(F)(F)F)c3)c2)nc1C(=O)N[C@@H]1CNCC(F)(F)C1` [Example 13, (S)-3-amino-N-(5,5-difluoropiperidin-3-yl)-6-(2-(1-(2,2,2-trifluoroethyl)-1H-pyrazol-4-yl)pyridin-4-yl)pyrazine-2-carboxamide]: the IC50 against Chk2 kinase was 0.1 to 1 µM; in test [1] (setting [4]), 8.59 µM; in test [1] (setting [2]) it was at most 10 µM; in test [1] (combination with cisplatin, read-out: Administered in combination with cisplatin (IC50)) it was 2.93 µM; in test [1] (combination with doxorubicin, read-out: Administered in combination with doxorubicin (IC50)), 0.91 µM.

Regarding `CC(C)(O)Cn1cc(-c2cc(-c3cnc(N)c(C(=O)N[C@@H]4CNC[C@@H](F)C4)n3)c(F)cn2)cn1` [Example 22, 3-amino-6-(5-fluoro-2-(1-(2-hydroxy-2-methylpropyl)-1H-pyrazol-4-yl)pyridin-4-yl)-N-((3S,5S)-5-fluoropiperidin-3-yl)pyrazine-2-carboxamide], the figures for the half-maximal inhibitory concentration (IC50) (against Chk2 kinase; in test [1] (setting [2])) were above 1 µM and 10 to 100 µM, respectively.

Take `Nc1ncc(-c2cc(-c3cnn(CC(F)(F)F)c3)ccc2O)nc1C(=O)N[C@@H]1CNC[C@@H](F)C1` [Example 23, 3-amino-N-((3S,5S)-5-fluoropiperidin-3-yl)-6-(2-hydroxy-5-(1-(2,2,2-trifluoroethyl)-1H-pyrazol-4-yl)phenyl)pyrazine-2-carboxamide]: the IC50 on Chk2 kinase was at most 0.01 µM; in test [1] (setting [2]) it was 10 to 100 µM.

As for `Nc1ncc(-c2cc(-c3cnn(CC(F)(F)F)c3)ccc2O)nc1C(=O)N[C@H]1CCCNC1` [Example 24, (S)-3-amino-6-(2-hydroxy-5-(1-(2,2,2-trifluoroethyl)-1H-pyrazol-4-yl)phenyl)-N-(piperidin-3-yl) pyrazine-2-carboxamide], the figures for the half-maximal inhibitory concentration (IC50) (against Chk2 kinase; in test [1] (setting [2])) were at most 0.01 µM and 10 to 100 µM, respectively.

`CC(C)(O)Cn1cc(-c2cc(-c3cnc(N)c(C(=O)NC4CNC[C@@H](F)C4)n3)ccn2)cn1` (stereo partly drawn) [Example 34, 3-amino-N-((3S,5S)-5-fluoropiperidin-3-yl)-6-(2-(1-(2-hydroxy-2-methylpropyl)-1H-pyrazol-4-yl)pyridin-4-yl)pyrazine-2-carboxamide]: the IC50 in test [1] (setting [2]) is 10 to 100 µM.

On to `CC1(C)Cc2c(-c3ccc(F)c(-c4cnc(N)c(C(=O)N[C@@H]5CNCC[C@H]5O)n4)c3)cnn2C1` [Example 47, 3-amino-6-(5-(5,5-dimethyl-5,6-dihydro-4H-pyrrolo[1,2-b]pyrazol-3-yl)-2-fluorophenyl)-N-((3R,4R)-4-hydroxypiperidine-3-yl) pyrazine-2-carboxamide], for which the IC50 fell in the range of 0.01 to 0.1 µM against Chk2 kinase and 10 to 100 µM in test [1] (setting [2]).

`CC1(C)Cc2c(-c3cc(-c4cnc(N)c(C(=O)N[C@@H]5CNC[C@@H](F)C5)n4)ccn3)cnn2C1` [Example 48, 3-amino-6-(2-(5,5-dimethyl-5,6-dihydro-4H-pyrrolo[1,2-b]pyrazol-3-yl)pyridin-4-yl)-N-((3S,5S)-5-fluoropiperidin-3-yl)pyrazine-2-carboxamide]: the IC50 at Chk2 kinase was at most 0.01 µM; in test [1] (setting [2]) it was 10 to 100 µM.

For `CC1(C)Cc2c(-c3cc(-c4cnc(N)c(C(=O)N[C@H]5CCCNC5)n4)ccn3)cnn2C1` [Example 49, (S)-3-amino-6-(2-(5,5-dimethyl-5,6-dihydro-4H-pyrrolo[1,2-b]pyrazol-3-yl)pyridin-4-yl)-N-(piperidin-3-yl)pyrazine-2-carboxamide], the IC50 against Chk2 kinase is at most 0.01 µM; in test [1] (setting [2]), 10 to 100 µM.

On to `CC1(C)Cc2c(-c3cc(-c4cnc(N)c(C(=O)N[C@H]5CCC6(CC6)NC5)n4)ccn3)cnn2C1` [Example 50, (S)-3-amino-6-(2-(5,5-dimethyl-5,6-dihydro-4H-pyrrolo[1,2-b]pyrazol-3-yl)pyridin-4-yl)-N-(4-azaspiro[2.5]octan-6-yl)pyrazine-2-carboxamide], for which the IC50 against Chk2 kinase was at most 0.01 µM; in test [1] (setting [2]), 10 to 100 µM.

Turning to `CC1(C)Cc2c(-c3cccc(-c4cnc(N)c(C(=O)N[C@H]5CCC6(CC6)NC5)n4)c3)cnn2C1` [Example 51, (S)-3-amino-6-(3-(5,5-dimethyl-5,6-dihydro-4H-pyrrolo[1,2-b]pyrazol-3-yl)phenyl)-N-(4-azaspiro[2.5]octan-6-yl)pyrazine-2-carboxamide], the half-maximal inhibitory concentration (IC50) against Chk2 kinase was at most 0.01 µM; in test [1] (setting [3]), 10 to 100 µM.

For the compound `N.N.[Cl][Pt][Cl]` [cisplatin, reference compound], the IC50 in test [1] (alone, read-out: Administered alone (IC50)) turned out to be 26 µM.

Take `COc1cccc2c1C(=O)c1c(O)c3c(c(O)c1C2=O)C[C@@](O)(C(=O)CO)C[C@@H]3O[C@H]1C[C@H](N)[C@H](O)[C@H](C)O1` [doxorubicin, reference compound]: the half-inhibitory concentration (IC50) in test [1] (setting [4]) is 1.5 µM.
